Test results taken from US12655116B2, “Substituted isophthalic acid diamides” (Bayer Aktiengesellschaft, priority 2020, dated 2026).

Tests used:
ABUTH [1] = experiment: Pre-emergence herbicidal action against ABUTH; type: in vivo, Abutilon theophrasti; conditions: Abutilon theophrasti, 504 h; for pest or weed control at 80 g/ha: scored visually after 3 weeks vs untreated controls (100% = plants have died, 0% = like control plants); for pest or weed control at 20 g/ha: dosage 20 g/ha, scored visually after 3 weeks vs untreated controls, 100% = plants have died, 0% = like control plants, read-out: Pre-emergence action against ABUTH (herbicidal activity in percent)
How it was run: (§1)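 Sandy loam pots, seeds covered with soil, then surface-treated with WP or EC formulations at 600–800 l/ha water plus 0.2% wetting agent. Greenhouse, 3 weeks. Percent damage vs untreated controls.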

ALOMY [2] = experiment: Pre-emergence herbicidal action against ALOMY; type: in vivo, Alopecurus myosuroides; conditions: Alopecurus myosuroides, 504 h, pre-emergence; for pest or weed control at 80 g/ha: scored visually after 3 weeks vs untreated controls (100% = plants have died, 0% = like control plants); for pest or weed control at 20 g/ha: scored visually after 3 weeks, 100% = plants have died, 0% = like control plants
How it was run: as §1

AMARE [3] = experiment: Pre-emergence herbicidal action against AMARE; type: in vivo, Amaranthus retroflexus; conditions: Amaranthus retroflexus, 504 h, scored visually after 3 weeks vs untreated controls, 100% = plants have died, 0% = like control plants
How it was run: as §1

AVEFA [4] = experiment: Pre-emergence herbicidal action against AVEFA; type: in vivo, Avena fatua; conditions: Avena fatua, 504 h; 80 g/ha, pre-emergence
How it was run: as §1

ECHCG [5] = experiment: Pre-emergence herbicidal action against ECHCG; type: in vivo, Echinochloa crus-galli; conditions: Echinochloa crus-galli, 504 h
How it was run: as §1

LOLRI [6] = experiment: Pre-emergence herbicidal action against LOLRI; type: in vivo, Lolium rigidum; conditions: Lolium rigidum, 504 h
How it was run: as §1

MATIN [7] = experiment: Pre-emergence herbicidal action against MATIN; type: in vivo, Matricaria inodora; conditions: Tripleurospermum inodorum, 504 h; for pest or weed control at 20 g/ha: dosage 20 g/ha; for pest or weed control at 80 g/ha: dosage 80 g/ha
How it was run: as §1

SETVI [8] = experiment: Pre-emergence herbicidal action against SETVI; type: in vivo, Setaria viridis; conditions: Setaria viridis, 504 h; for pest or weed control at 20 g/ha: dosage 20 g/ha; for pest or weed control at 80 g/ha: dosage 80 g/ha
How it was run: as §1

VIOTR [9] = experiment: Pre-emergence herbicidal action against VIOTR; type: in vivo, Viola tricolor; conditions: Viola tricolor, 504 h; for pest or weed control at 20 g/ha: dosage 20 g/ha; for pest or weed control at 80 g/ha: dosage 80 g/ha
How it was run: as §1

DIGSA [10] = experiment: Pre-emergence herbicidal action against DIGSA; type: in vivo, Digitaria sanguinalis; conditions: Digitaria sanguinalis, 504 h; for pest or weed control at 20 g/ha: dosage 20 g/ha; for pest or weed control at 80 g/ha: dosage 80 g/ha
How it was run: as §1

ABUTH [11] = experiment: Post-emergence herbicidal action against ABUTH; type: in vivo, Abutilon theophrasti; conditions: Abutilon theophrasti, 504 h, visual assessment about 3 weeks after treatment vs untreated controls; for pest or weed control at 20 g/ha: dosage 20 g/ha
How it was run: (§2)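 Herbicidal action is a visual percentage rating (0% = as untreated control, 100% = plants dead) made roughly 3 weeks after treatment. Plants were grown in sandy loam in the greenhouse and treated at the one-leaf stage, 2 to 3 weeks post-sowing. Treatment was a foliar spray of wettable-powder or emulsion-concentrate formulations at 600 to 800 l/ha water plus 0.2% wetting agent.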

ALOMY [12] = experiment: Post-emergence herbicidal action against ALOMY; type: in vivo, Alopecurus myosuroides; conditions: Alopecurus myosuroides, 504 h, visual assessment about 3 weeks after treatment vs untreated controls; for pest or weed control at 5 g/ha: dosage 5 g/ha; for pest or weed control at 20 g/ha: dosage 20 g/ha
How it was run: as §2

AMARE [13] = experiment: Post-emergence herbicidal action against AMARE; type: in vivo, Amaranthus retroflexus; conditions: Amaranthus retroflexus, 504 h, 20 g/ha, visual assessment about 3 weeks after treatment, 100% = plants have died, 0% = like control plants
How it was run: as §2

AVEFA [14] = experiment: Post-emergence herbicidal action against AVEFA; type: in vivo, Avena fatua; conditions: Avena fatua, 504 h, visual assessment about 3 weeks after treatment, 100% = plants have died, 0% = like control plants
How it was run: as §2

ECHCG [15] = experiment: Post-emergence herbicidal action against ECHCG; type: in vivo, Echinochloa crus-galli; conditions: Echinochloa crus-galli, 504 h, dosage 20 g/ha
How it was run: as §2

LOLRI [16] = experiment: Post-emergence herbicidal action against LOLRI; type: in vivo, Lolium rigidum; conditions: Lolium rigidum, 504 h, dosage 20 g/ha
Procedure: Seeds of monocotyledonous and dicotyledonous weed and crop plants are laid out in sandy loam soil in wood-fiber pots, covered with soil and cultivated in a greenhouse under good growth conditions. 2 to 3 weeks after sowing, the test plants are treated at the one-leaf stage. The compounds of the invention, formulated in the form of wettable powders (WP) or as emulsion concentrates (EC), are then sprayed onto the green parts of the plants in the form of an aqueous suspension or emulsion at a water application rate equivalent to 600 to 800 l/ha, with addition of 0.2% wetting agent. After the test plants have been left to stand in the greenhouse under optimal growth conditions for about 3 weeks, the action of the preparations is assessed visually in comparison to untreated controls (herbicidal action in percent (%): 100% activity=the plants have died, 0% activity=like control plants). […] The tables below illustrate, in an illustrative manner, the post-emergence herbicidal action of the compounds of the invention, the herbicidal activity being stated in percent.

MATIN [17] = experiment: Post-emergence herbicidal action against MATIN; type: in vivo, Matricaria inodora; conditions: Tripleurospermum inodorum, 504 h, dosage 20 g/ha
How it was run: as §2

POLCO [18] = experiment: Post-emergence herbicidal action against POLCO; type: in vivo, Polygonum convolvulus; conditions: Fallopia convolvulus, 504 h, dosage 20 g/ha
How it was run: as §2

SETVI [19] = experiment: Post-emergence herbicidal action against SETVI; type: in vivo, Setaria viridis; conditions: Setaria viridis, 504 h; for pest or weed control at 5 g/ha: dosage 5 g/ha; for pest or weed control at 20 g/ha: dosage 20 g/ha
How it was run: as §2

VERPE [20] = experiment: Post-emergence herbicidal action against VERPE; type: in vivo, Veronica persica; conditions: Veronica persica, 504 h, 20 g/ha
How it was run: as §2

VIOTR [21] = experiment: Post-emergence herbicidal action against VIOTR; type: in vivo, Viola tricolor; conditions: Viola tricolor, 504 h
How it was run: as §2

DIGSA [22] = experiment: Post-emergence herbicidal action against DIGSA; type: in vivo, Digitaria sanguinalis; conditions: Digitaria sanguinalis, 504 h
How it was run: as §2

HORMU [23] = experiment: Pre-emergence herbicidal action against HORMU; type: in vivo, Hordeum murinum; conditions: Hordeum murinum, 504 h; 80 g/ha, pre-emergence
How it was run: as §1

PHBPU [24] = experiment: Pre-emergence herbicidal action against PHBPU; type: in vivo, Pharbitis purpurea; conditions: Ipomoea purpurea, 504 h, dosage 80 g/ha
How it was run: as §1

POLCO [25] = experiment: Pre-emergence herbicidal action against POLCO; type: in vivo, Polygonum convolvulus; conditions: Fallopia convolvulus, 504 h, dosage 80 g/ha
How it was run: as §1

STEME [26] = experiment: Pre-emergence herbicidal action against STEME; type: in vivo, Stellaria media; conditions: Stellaria media, 504 h
How it was run: as §1

HORMU [27] = experiment: Post-emergence herbicidal action against HORMU; type: in vivo, Hordeum murinum; conditions: Hordeum murinum, 504 h, dosage 20 g/ha
How it was run: as §2

STEME [28] = experiment: Post-emergence herbicidal action against STEME; type: in vivo, Stellaria media; conditions: Stellaria media, 504 h
How it was run: as §2

VERPE [29] = experiment: Pre-emergence herbicidal action against VERPE; type: in vivo, Veronica persica; conditions: Veronica persica, 504 h
How it was run: as §1

PHBPU [30] = experiment: Post-emergence herbicidal action against PHBPU; type: in vivo, Pharbitis purpurea; conditions: Ipomoea purpurea, 504 h, dosage 20 g/ha
How it was run: as §2

Structure (SMILES)	pest or weed control at 80 g/ha (ABUTH [1]) [%]	pest or weed control at 20 g/ha (ABUTH [1]) [%]	pest or weed control at 80 g/ha (ALOMY [2]) [%]	pest or weed control at 20 g/ha (ALOMY [2]) [%]	pest or weed control at 20 g/ha (AMARE [3]) [%]	pest or weed control at 80 g/ha (AMARE [3]) [%]	pest or weed control at 80 g/ha (AVEFA [4]) [%]	pest or weed control at 80 g/ha (ECHCG [5]) [%]	pest or weed control at 80 g/ha (LOLRI [6]) [%]	pest or weed control at 20 g/ha (MATIN [7]) [%]	pest or weed control at 80 g/ha (MATIN [7]) [%]	pest or weed control at 80 g/ha (SETVI [8]) [%]	pest or weed control at 80 g/ha (VIOTR [9]) [%]	pest or weed control at 20 g/ha (DIGSA [10]) [%]	pest or weed control at 80 g/ha (DIGSA [10]) [%]	pest or weed control at 20 g/ha (ABUTH [11]) [%]	pest or weed control at 20 g/ha (ALOMY [12]) [%]	pest or weed control at 20 g/ha (AMARE [13]) [%]	pest or weed control at 20 g/ha (AVEFA [14]) [%]	pest or weed control at 20 g/ha (ECHCG [15]) [%]	also measured
Cn1nnnc1NC(=O)c1ccc(Br)c(C(=O)NC2CC2)c1Cl [Example 1-179]	100	80	100	80	100	100	100	100	90	90	100	100	100	100	100	80	90	100	90	90	pest or weed control at 20 g/ha (SETVI [8]): 80%; pest or weed control at 20 g/ha (VIOTR [9]): 100%; pest or weed control at 5 g/ha (ALOMY [12]): 90%; pest or weed control at 20 g/ha (LOLRI [16]): 80%; pest or weed control at 20 g/ha (MATIN [17]): 80%; pest or weed control at 20 g/ha (POLCO [18]): 80%; pest or weed control at 5 g/ha (SETVI [19]): 90%; pest or weed control at 20 g/ha (SETVI [19]): 90%; pest or weed control at 20 g/ha (VERPE [20]): 80%; pest or weed control at 5 g/ha (VIOTR [21]): 80%; pest or weed control at 20 g/ha (VIOTR [21]): 90%; pest or weed control at 5 g/ha (DIGSA [22]): 90%; pest or weed control at 20 g/ha (DIGSA [22]): 90%
Cn1nnnc1NC(=O)c1ccc(Cl)c(C(=O)NC2CC2)c1Cl [Example 1-173]	100	90	100	80	100	100	100	100	90	80	100	100	90	100	100	90	80	100	100	80	pest or weed control at 80 g/ha (HORMU [23]): 90%; pest or weed control at 20 g/ha (LOLRI [6]; 20 g/ha): 80%; pest or weed control at 80 g/ha (PHBPU [24]): 90%; pest or weed control at 80 g/ha (POLCO [25]): 80%; pest or weed control at 20 g/ha (SETVI [8]): 90%; pest or weed control at 20 g/ha (STEME [26]; dosage 20 g/ha): 80%; pest or weed control at 80 g/ha (STEME [26]; dosage 80 g/ha): 100%; pest or weed control at 20 g/ha (VIOTR [9]): 80%; pest or weed control at 5 g/ha (AVEFA [14]; 5 g/ha): 90%; pest or weed control at 20 g/ha (HORMU [27]): 90%; pest or weed control at 20 g/ha (LOLRI [16]): 90%; pest or weed control at 5 g/ha (SETVI [19]): 90%; pest or weed control at 20 g/ha (SETVI [19]): 90%; pest or weed control at 20 g/ha (STEME [28]; 20 g/ha): 100%; pest or weed control at 5 g/ha (STEME [28]; dosage 5 g/ha): 80%; pest or weed control at 5 g/ha (VIOTR [21]): 90%; pest or weed control at 20 g/ha (VIOTR [21]): 90%; pest or weed control at 5 g/ha (DIGSA [22]): 90%; pest or weed control at 20 g/ha (DIGSA [22]): 100%
CCNC(=O)c1c(Br)ccc(C(=O)Nc2nnnn2C)c1Cl [Example 1-178, 4-bromo-2-chloro-N^3-ethyl-N^1-(1-methyl-1H-tetrazol-5-yl)isophthalamide]	100	90	100	80	100	100	100	100	80	90	100	100	100	100	100	80	100	100	80	90	pest or weed control at 20 g/ha (ECHCG [5]; 20 g/ha): 80%; pest or weed control at 80 g/ha (PHBPU [24]): 80%; pest or weed control at 20 g/ha (VERPE [29]; dosage 20 g/ha): 80%; pest or weed control at 80 g/ha (VERPE [29]; dosage 80 g/ha): 80%; pest or weed control at 5 g/ha (ABUTH [11]; dosage 5 g/ha): 80%; pest or weed control at 5 g/ha (ALOMY [12]): 90%; pest or weed control at 20 g/ha (LOLRI [16]): 80%; pest or weed control at 20 g/ha (MATIN [17]): 90%; pest or weed control at 20 g/ha (PHBPU [30]): 80%; pest or weed control at 20 g/ha (POLCO [18]): 80%; pest or weed control at 20 g/ha (SETVI [19]): 90%; pest or weed control at 20 g/ha (VERPE [20]): 80%; pest or weed control at 5 g/ha (VIOTR [21]): 80%; pest or weed control at 20 g/ha (VIOTR [21]): 80%
